Experimental data taken from PubChem BioAssay (NCI).
Values joined by “and” are separate entries in the source; they are usually repeats but may differ in a detail not shown here. Equal entries are not always repeated.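 Following 48 hours of exposure in 96-well plates, responses at five concentrations were used to interpolate endpoints linearly. Abbreviation: GI50, concentration required for 50% inhibition of growth. TGI denotes the concentration required for complete inhibition of growth.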

How the values were obtained:
Test in all cases: inhibition of tumour cell growth, NCI panel, 48 h
[1] = system: BT-549 breast
[2] = system: CAKI-1 renal
[3] = system: HT29 colon
[4] = system: LOX IMVI melanoma
[5] = system: MCF7 breast
[6] = system: MDA-N
[7] = system: NCI-H522 lung
[8] = system: UACC-257 melanoma
[9] = system: DLD-1 colon
[10] = system: LXFL 529 NSCLC
[11] = system: SNB-78 CNS

SMILES | TGI [1] [µM] | TGI [2] [µM] | TGI [3] [µM] | TGI [4] [µM] | TGI [5] [µM] | TGI [6] [µM] | TGI [7] [µM] | TGI [8] | TGI [9] [µM] | TGI [10] [µM] | TGI [11] [µM] | GI50 [3] [µM] | GI50 [10] [µM] | GI50 [7] [µM] | GI50 [11] [µM] | GI50 [1] [µM] | GI50 [2] [µM] | GI50 [4] [µM] | GI50 [5] [µM] | GI50 [8] [µM]
CS(=O)(=O)c1nc(-c2cc3c(c(S(C)(=O)=O)n2)CCCC3)cc2c1CCCC2 | > 82.2 | > 59.1 | > 100 | > 100 | > 100 | > 100 | > 77.6 | > 100 µM | – | – | – | – | – | – | – | – | – | – | – | –
CN(C)CCn1c(=O)c2ccc3c4c(nn3CCN(C)C)c3cc(N)ccc3n(c1=O)c24 | 0.78 | 1.47 | – | 0.127 | 1.17 | 0.0752 | 0.27 | 0.433 µM | – | – | – | – | – | – | – | – | – | – | – | –
OCCOCn1cc(Cn2ncc3c(SCc4ccccc4)ncnc32)nn1 | > 100 | > 100 | > 100 | > 100 | > 100 | 37 | 99.2 | > 100 µM | – | – | – | – | – | – | – | – | – | – | – | –
O=C(O)C(CSC(c1ccccc1)(c1ccccc1)c1ccccc1)N=Cc1cccs1 (stereo not given) | > 27.5 | > 54.7 | 18.6 | > 59.8 | > 56 | 1.94 | > 20.1 | > 100 µM | – | – | – | – | – | – | – | – | – | – | – | –
N#CC(c1ccccc1)N1CCCN(C(C#N)c2ccccc2)C1c1ccccc1O (stereo not given) | > 100 | > 100 | > 100 | > 100 | > 100 | > 100 | > 100 | > 100 µM | – | – | – | – | – | – | – | – | – | – | – | –
Nc1ccccc1N/C(=C\C(=O)C(Cl)(Cl)Cl)c1ccccc1 | 91.6 | > 100 | > 100 | 35.6 | 83.4 | 39 | 35 | 79.1 µM | – | – | – | – | – | – | – | – | – | – | – | –
O=[N+]([O-])c1ccc2c(c1)c(N=NC(=S)NC1CCCCC1)c(O)n2CN1CCOCC1 | 20.8 | 14.3 | 17.9 | 19.3 | 17.4 | 20 | 30.3 | 22.7 µM | – | – | – | – | – | – | – | – | – | – | – | –
CC1(C)CCC2(C(=O)OC3OC(CO)C(O)C(O)C3O)CCC3(C)C(=CCC4C5(C)CCC(OC6OC(CO)C(O)C(O)C6O)C(C)(C)C5CCC43C)C2C1 (stereo not given) | > 25 | > 25 | > 25 | 8.51 | > 25 | – | 12.9 | > 25 µM | – | – | – | – | – | – | – | – | – | – | – | –
CCOC(=O)C1CCn2c(nc3c2c(=O)n(C)c(=O)n3C)S1 (stereo not given) | – | > 100 | > 100 | > 100 | – | – | > 100 | > 100 µM | > 100 | > 100 | > 100 | – | – | – | – | – | – | – | – | –
COc1c2c(cc3c1C(O)N1CC[C@]34[C@H]3O[C@H]3[C@H](OC)C[C@@H]14)OCO2 (stereo not given in full) | > 100 | > 100 | > 100 | > 100 | > 100 | 67.8 | 96.7 | > 100 µM | – | – | – | – | – | – | – | – | – | – | – | –
CCOC(=O)/C(=C\NCC(OCC)OCC)c1nc2ccccc2[nH]1 | 62.4 | > 100 | 71.1 | 55.4 | > 100 | 85.2 | 62.1 | 58.7 µM | – | – | – | – | – | – | – | – | – | – | – | –
COC(=O)C1C(O)CCC2CN3CCc4c([nH]c5cccc(OC)c45)C3CC21 (stereo not given) | > 100 | > 100 | > 100 | > 100 | > 100 | > 100 | > 100 | > 100 µM | – | – | – | – | – | – | – | – | – | – | – | –
O=[n+]1c2c(n([O-])c3ccccc31)-c1cccc3cccc-2c13 | – | – | > 100 | > 100 | > 100 | > 100 | > 100 | > 100 µM | – | – | – | – | – | – | – | – | – | – | – | –
Nc1nc(N)c2c(n1)NC(c1ccccc1)CC(/C=C/c1ccc(Cl)cc1)=N2 (stereo not given) | 37.9 | 26.4 | 15.2 | 13.4 | 16 | 24.4 | 5.32 | 7.78 µM | – | – | – | – | – | – | – | – | – | – | – | –
[O-][N+](CCO)(CCO)c1ncnc2nc[nH]c12 | > 100 | > 100 | > 100 | > 100 | > 100 | > 100 | > 100 | > 100 µM | – | – | – | – | – | – | – | – | – | – | – | –
CCC(C)C1NC(=O)C2CCCN2C(=O)C(CC2CO2)OC(=O)CCNC(=O)C(C)N(C)C(=O)C(C(C)C)N(C)C1=O (stereo not given) | > 100 | > 100 | > 100 | 0.118 | > 100 | – | > 100 | – | – | – | – | – | – | – | – | – | – | – | – | –
COc1ccc(N=c2ssc(C(=S)Nc3ccc(OC)cc3)c2S)cc1 | > 100 | > 100 | > 100 | > 100 | > 100 | > 100 | > 100 | > 100 µM | – | – | – | – | – | – | – | – | – | – | – | –
CN(CCCNC(=O)c1cn(C)c2c1ccc1cc(Cl)c(Cl)cc12)CCCNC(=O)c1cn(C)c2c1ccc1cc(Cl)c(Cl)cc12 | 33.3 | 27.1 | 29.4 | > 43.3 | 19.6 | 36 | 31.5 | 52.4 µM | – | – | – | – | – | – | – | – | – | – | – | –

SMILES | TGI [1] [µM] | TGI [2] [µM] | TGI [3] [µM] | TGI [4] [µM] | TGI [5] [µM] | TGI [6] [µM] | TGI [7] [µM] | TGI [8] | TGI [9] [µM] | TGI [10] [µM] | TGI [11] [µM] | GI50 [3] [µM] | GI50 [10] [µM] | GI50 [7] [µM] | GI50 [11] [µM] | GI50 [1] [µM] | GI50 [2] [µM] | GI50 [4] [µM] | GI50 [5] [µM] | GI50 [8] [µM]
C[C@]12CC[C@@H]3c4ccccc4CC[C@H]3[C@@H]1CC[C@@H]2O | – | – | – | > 100 | – | – | > 100 | > 100 µM | > 100 | > 100 | > 100 | – | – | – | – | – | – | – | – | –
N[C@H]1CCN(c2c(F)cc3c(=O)c(C(=O)O)cn4c3c2Oc2cc3c(ccc5ccccc53)cc2-4)C1 | > 100 | > 100 | 7.34 | > 100 | > 100 | > 100 | > 100 | > 100 µM | – | – | – | – | – | – | – | – | – | – | – | –
C/C(=N\NC(=O)c1cccnc1)c1cccc(/C(C)=N/NC(=O)c2cccnc2)n1 | – | – | > 100 | > 100 | – | – | 6.76 | 35.4 µM | > 100 | > 100 | 97.9 | 2.63 | 2.47 | 1.58 | 7.53 | – | – | – | – | –
COc1ccc(/C=C(\C#N)c2nc(N)nc(N3N=C(C)CC3(C)C)n2)c(O)c1 | > 100 | 38.1 | 44.5 | – | 45.5 | – | 38.9 | 59.1 µM | – | – | – | – | – | – | – | – | – | – | – | –
O=C1c2cc3c(cc2-c2c1c1ccc(Cl)cc1c(=O)n2C[C@H](O)[C@@H](O)[C@H](O)CO)OCO3 | 1.36 | 0.4 | 0.283 | 0.103 | 0.178 | – | 0.172 | 0.396 µM | – | – | – | 0.0498 | – | 0.0117 | – | 0.0301 | 0.0325 | 0.0145 | < 0.01 | 0.0771
Cc1cc(O)c(C(C)C)cc1CN1CCCCC1 | > 100 | > 100 | > 100 | > 100 | > 100 | > 100 | > 100 | > 100 µM | – | – | – | – | – | – | – | – | – | – | – | –
O=S(=O)(/N=C(\NO)Nc1ccc(Cl)cc1)c1ccc(S(=O)(=O)c2ccccc2)s1 | 44.7 | 91.4 | 57.7 | 29.3 | > 100 | – | 37.7 | 41 µM | – | – | – | – | – | – | – | – | – | – | – | –
CC(Sc1ccccc1)C(CO)(CO)[N+](=O)[O-] (stereo not given) | – | 33.1 | 32.9 | 28.2 | – | – | 26.3 | 30.2 µM | 29 | 27.5 | 66.7 | – | – | – | – | – | – | – | – | –
C[C@]12CCC(=O)C=C1CC[C@@H]1[C@@H]2[C@@H](O)C[C@@]2(C)[C@H]1CC[C@]2(O)C(=O)CO | > 100 | > 100 | > 100 | > 100 | > 100 | > 100 | > 100 | > 100 µM | – | – | – | – | – | – | – | – | – | – | – | –
COC(=O)C1C(C)N1C (stereo not given) | – | – | > 100 | > 100 | – | – | > 100 | > 100 µM | > 100 | > 100 | > 100 | – | – | – | – | – | – | – | – | –
O=C(CCN1CC2CCC(CC2)C1)c1cccs1 | 39 | 34.5 | 61.6 | 27.7 | 29.4 | 34.7 | 36.3 | 30.4 µM | – | – | – | – | – | – | – | – | – | – | – | –
CC[C@@]1(O)C(=O)OCc2c1cc1n(c2=O)Cc2c-1nc1ccc(O)cc1c2CC[Si](C)(C)C | 4.09 | – | – | 0.114 | – | – | 0.299 | 0.136 µM and 0.0447 µM | – | – | – | – | – | – | – | – | – | – | – | –
NCCNc1nc(N2CCCC2)c2nc(Cl)c(NCc3ccccc3)nc2n1 | 4.12 | 15.2 | 5.46 | 3.06 | 3.31 | 3.1 | 3.31 | 4 µM | – | – | – | – | – | – | – | – | – | – | – | –
O=S(=O)(O)c1cccc2c(N=Nc3c(O)ccc4ccccc34)cccc12 | > 100 | > 100 | > 100 | > 100 | – | > 100 | > 100 | > 100 µM | – | – | – | – | – | – | – | – | – | – | – | –
CC(=O)OC1CC(O)CC2=CCC3C4CCC(C(C)(O)C(O)CC5COC(=O)C5C)C4(C)CCC3C21C (stereo not given) | > 25 | > 25 | > 25 | > 25 | > 25 | > 25 | > 25 | > 25 µM | – | – | – | – | – | – | – | – | – | – | – | –
CC(=O)N(C)c1ccc2c(ccc[n+]2[O-])c1[N+](=O)[O-] | – | > 100 | > 100 | > 100 | – | – | – | > 100 µM | > 100 | > 100 | > 100 | – | – | – | – | – | – | – | – | –
O=S1(=O)OC(c2ccc(O)cc2)(c2ccc(O)cc2)c2ccccc21 | > 100 | > 100 | > 100 | > 100 | > 100 | – | > 100 | > 100 µM | – | – | – | – | – | – | – | – | – | – | – | –
